Test results from ChEMBL document CHEMBL1146712, “Synthesis and biological evaluation of [4-(2-phenylethenesulfonylmethyl)phenyl]-quinazolin-4-yl-amines as orally active anti-cancer agents” (2004).

Assays:
ACHN = experiment: Concentration required to inhibit growth of human renal (ACHN) cell line; format: functional
DU-145 = experiment: In vitro inhibition of DU145 (human prostate cancer) cell growth.; format: functional
HT-29 = experiment: Concentration required to inhibit growth of human colon (HT-29) cell line; format: functional
NCI/ADR-RES = experiment: in vitro inhibition of MCF-7/ADR (human breast cancer) cell growth.; format: functional
MCF7 = experiment: Concentration required to inhibit growth of human breast (MCF-7) cell line; format: functional
Mus musculus [1] = experiment: (§1) Anticancer activity after implantation of HT-29 human adeno carcinoma xenograft in mice at a dose of 300 mg/kg; format: functional
Mus musculus [2] = experiment: Anticancer activity after implantation of HT-29 human adeno carcinoma xenograft in mice at a dose of 300 mg/kg; 0/6; format: functional
OVCAR-8 = experiment: Concentration required to inhibit growth of human ovarian (OVCAR8) cell line; format: functional
PC-3 = experiment: Concentration required to inhibit growth of human prostate (PC3) cell line; format: functional
SK-OV-3 = experiment: Concentration required to inhibit growth of human ovarian (SK-OV3) cell line; format: functional
SW-620 = experiment: Concentration required to inhibit growth of human colon (SW620) cell line; format: functional
UACC-62 = experiment: Concentration required to inhibit growth of human melanoma (UACC62) cell line; format: functional
U-251 = experiment: Concentration required to inhibit growth of human CNS (U251) cell line; format: functional
Mus musculus [3] = experiment: as §1; format: functional; set-up: reference not given here
NCI-H522 (Homo sapiens) = experiment: Concentration required to inhibit growth of human lung (H522) cell line
Mus musculus [4] = experiment: Anticancer activity after implantation of HT-29 human adeno carcinoma xenograft in mice at a dose of 300 mg/kg; 1/6; format: functional

| SMILES | GI50 (ACHN) [µM] | GI50 (DU-145) [µM] | GI50 (HT-29) [µM] | GI50 (NCI/ADR-RES) [µM] | GI50 (MCF7) [µM] | inhibition in vivo at 300 mg/kg (Mus musculus [1]) [%] | Mortality (Mus musculus [2]) | GI50 (OVCAR-8) [µM] | GI50 (PC-3) [µM] | GI50 (SK-OV-3) [µM] | GI50 (SW-620) [µM] | GI50 (UACC-62) [µM] | GI50 (U-251) [µM] | Mean body weight (Mus musculus [3]) [%] | GI50 (NCI-H522 (Homo sapiens)) [µM] | Mortality (Mus musculus [4]) |
| --- | --- | --- | --- | --- | --- | --- | --- | --- | --- | --- | --- | --- | --- | --- | --- | --- |
| COc1cc2ncnc(Nc3ccc(CS(=O)(=O)/C=C/c4ccc(Cl)cc4Cl)cc3)c2cc1OC | 15 | 1.4 | 6 | 24 | 11 | 68 | 0 | 2 | 5 | 2 | 2 | 21 | 13 | 12 | 6 |  |
| O=S(=O)(/C=C/c1ccc(Cl)cc1Cl)Cc1ccc(Nc2ncnc3ccc(Br)cc23)cc1 | 0.1 | 2 | 28 | > 100 | 4 | 22 |  | 3 | 4 | 1 | > 100 | 2 | 4 | 4 | 8 | 1 |
| O=S(=O)(/C=C/c1ccc(Cl)cc1Cl)Cc1ccc(Nc2ncnc3ccccc23)cc1 | 0.1 | 3 | 24 | 5 | 4 | 22 | 0 | 4 | 19 | 2 | 14 | 2 | 4 | 7 | 12 |  |
